Legend:
[1] = test system: ^125I-IgG (goat anti-mouse); assay: Radiometric determination of IgG binding to surfactant-coated polystyrene microtiter wells; details: for Total IgG binding, Non-Sterilized: coated polystyrene wells; for Total IgG binding, Non-Sterilized / Tight IgG binding, Non-Sterilized: not sterilized; for Total IgG binding, Non-Sterilized / Total IgG binding, Sterilized: after three PBS washes; for Total IgG binding, Sterilized / Tight IgG binding, Sterilized: gamma sterilized (1.5 Mrad); for Tight IgG binding, Sterilized / Tight IgG binding, Non-Sterilized: after two hours in PBS-Tween (0.05%)
Method: The hydrophobic surfaces used were flat bottom microtiter plates composed of high binding polystyrene (Corning Costar No. 2581) and medium binding polystyrene (Corning Costar No. 2587). Testing was performed with and without gamma radiation sterilization using cobalt 60 (1.5 Mrad).
The surfactants were applied to the test plates as described in Materials and Methods, followed by sterilization where indicated.
Levels of protein binding were determined using a radiolabeled protein, namely, ^125I-IgG (goat anti-mouse) purchased from DuPont/NEN. Unlabeled IgG in sodium carbonate buffer pH 9.2 was spiked with ^125I-IgG so that the final concentration of labeled IgG and cold IgG in the test solution was 10 μg/mL.
Aliquots of 0.1 milliliters of the protein solution were placed in quadruplicate in the wells of 8-well strips removed from the test microtiter plates. The wells were incubated overnight at 4° C. with shaking. The supernatants were removed from the wells, followed by three washes with 0.2 mL of PBS. The wells were then dried and individually counted to determine “total” IgG binding. After determining “total” binding, the wells were incubated for two hours in 0.2 mL of PBS-Tween (0.05%) at room temperature with shaking. The supernatants were removed from the wells followed by three washes with 0.2 mL of PBS. The wells were dried and individually counted to determine “tight” IgG binding.
Untreated high binding and medium binding plates were used as controls. A comparative experiment was also performed in which a BSA protein coating was used in place of a surfactant coating. The BSA was preabsorbed onto the walls of the wells and then washed to remove excess material. Testing was then performed using the radiolabeled IgG solution as described above.
Radiolabel measurements were performed in a double blind study at BioMolecular Assays (Woburn, Mass.). IgG binding values per microwell were converted to ng/cm^2 values using a surface area of 0.94 cm^2 for a 0.1 mL volume.

Fetal Bovine Serum (FBS) = assay: Polymer blends molded into petri dishes, FBS protein binding by colloidal gold
Method: (§1) Low binding non-ionic surfactant molecules were blended at 5% (except as noted in Table 13) into a base polymer using a twin screw extruder, then injection molded into the shape of 35 mm petri dishes. Proteins tested were BSA and Fetal Bovine Serum (FBS). Protein binding was determined using a colloidal gold staining procedure as described above. In the case of the polypropylene and EVA blends, a silver enhancer was used (Sigma Chem. Co., St, Louis, Mo., Kit #SE-100).

MDCK cells [2] = assay: Cytotoxicity of extracts of coated plates; type: cell-based; details: media extract of coated plates (37° C., 48 hours), MDCK 72 hours, Gram Crystal Violet
Method: Cytotoxicity experiments were performed using MDCK cells. The non-ionic surfactants tested were Pluronic L-121, L-122, and P-123; Span 80 and 85; and Brij 30, 72 and 93. These molecules were coated onto 24-well plates (Corning Costar #9447) from 0.1% (w/v) in isopropanol. Untreated polystyrene and normal tissue culture treated polystyrene (Corning Costar #25820) 24-well plates were used as controls. All plates were incubated at 37° C. for 48 hours with 2 ml/well of complete DMEM media containing 10% Fetal Bovine Serum (FBS). This incubation was performed in order to extract any potentially toxic compounds from the coated surface into the cell growth serum. The FBS solutions were then transferred to tissue culture treated polystyrene and each well was inoculated with ≈2×10^4 cells/well of MDCK cells, and then incubated at 37° C. for 72 hours in a 5% CO2 atmosphere. Cells were then stained with Gram Crystal Violet.

BSA = assay: Polymer blends molded into petri dishes, BSA binding by colloidal gold; details: for BSA or FBS protein binding: blend in polypropylene or EVA
Method: as §1

[3] = test system: BSA protein (Bovine Serum Albumin, Fraction V); assay: BSA binding to coated polystyrene 24-well plates at different pH, colloidal gold stain; details: for Absorbance (550 nm) pH = 9.2: BSA 10 μg/ml in 0.10 M NaHCO3 buffer; for Absorbance (550 nm) pH = 7.4: BSA 10 μg/ml in 0.10 M PBS; for Absorbance (550 nm) pH = 4.6: BSA 10 μg/ml in 0.10 M acetate buffer
Method: Polystyrene plates having 24 wells (Corning Costar #9447) were coated as described in Materials and Methods.
BSA protein (Bovine Serum Albumin, Fraction V, Sigma) was prepared at 10 μg/ml in 0.10 M acetate buffer (pH=4.6), in 0.10 M PBS (pH=7.4), and in 0.10 M NaHCO3 buffer (pH=9.2). Wells of each coated plate, along with uncoated controls, were aliquoted 0.50 ml each of the protein solutions. The samples were run in triplicate.
The plates were placed on a rocker table for 30 minutes at 23° C. The protein solutions were then emptied from the plates, and the wells were rinsed three times with dl H2O. Thereafter, 1.0 ml of colloidal gold stain was added to each well (see Materials and Methods). The plates were placed on a rocker table overnight, rinsed three times with dI H2O, and air dried. Absorbance at 550 nm was then read using the Cambridge Technologies Plate Reader.

MDCK cells [4] = assay: MDCK cell attachment to coated polystyrene 24-well plates; type: cell-based; details: coated PS 24-well, gamma sterilized, media with 5% FBS, two days, visual
Method: The procedures used were as follows. Polystyrene 24-well plates were coated with the non-ionic surfactants listed in Table 5 in accordance with the procedures described in Materials and Methods. Uncoated plates were used as a control. For comparison, plates with a covalently attached acrylamide coating (Corning Costar Catalog #2500) and with a stearic acid coating were also tested. The stearic acid coating was applied in the same manner as the non-ionic surfactants again using a 0.1% (w/v) solution.
The plates were gamma sterilized at 1.5 Mrad and then inoculated with 5.6×10^4 MDCK […] per well in 1 ml of complete media containing 5% FBS (Fetal Bovine Serum). Incubation was carried out at 37° C. in a 5% CO2 atmosphere for two days. The plates were fixed and stained, and cell attachment was noted. Following this, the wells were stained using the colloidal gold technique to detect bound protein. Only visual observations were made.
Experiments were also performed with cells suspended in serum. The cells used in these experiments were MDCK cells. The surfactants used were the same as used in Table 5. Again, reduced binding of the cells to surfaces treated with a non-ionic surfactant was observed.

IgG = assay: Coating durability using water washes, IgG binding by colloidal gold; details: for Absorbance (550 nm) Initial: coated polystyrene, no water wash; for Absorbance (550 nm) 1 Time 1 hr 23° C. / Absorbance (550 nm) 1 Time 24 hr 23° C. / Absorbance (550 nm) 1 Time 24 hr 37° C. / Absorbance (550 nm) 1 Time 24 hr 70° C.: dI H2O wash 1 time; for Absorbance (550 nm) 6 Times 30 min each 23° C.: dI H2O wash 6 times
Summary of the method: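 24-well polystyrene plates coated with surfactants; durability tested by water washes on a rocker. IgG incubated 30 minutes at 23° C. with rocking, then rinsed 3× with water.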

[5] = blended at 1% into ethylene vinyl acetate
[6] = blended at 5% into ethylene vinyl acetate, silver enhancer
[7] = blended at 5% into polypropylene, silver enhancer

Compound | Total IgG binding, Non-Sterilized [1] | Total IgG binding, Sterilized [1] | Tight IgG binding, Sterilized [1] | Tight IgG binding, Non-Sterilized [1] | Bound Protein Absorbance (550 nm) FBS (Fetal Bovine Serum (FBS); [5]) | Bound Protein Absorbance (550 nm) FBS (Fetal Bovine Serum (FBS); [6]) | Bound Protein Absorbance (550 nm) FBS (Fetal Bovine Serum (FBS); [7]) | cell growth and morphology (MDCK cells [2]) | BSA or FBS protein binding (BSA) | Bound Protein Absorbance (550 nm) BSA (BSA; [7]) | Absorbance (550 nm) pH = 9.2 [3] | Absorbance (550 nm) pH = 7.4 [3] | Absorbance (550 nm) pH = 4.6 [3] | MDCK Attachment (MDCK cells [4]) | Absorbance (550 nm) Initial (IgG) | Absorbance (550 nm) 1 Time 1 hr 23° C. (IgG) | Absorbance (550 nm) 1 Time 24 hr 23° C. (IgG) | Absorbance (550 nm) 1 Time 24 hr 37° C. (IgG) | Absorbance (550 nm) 1 Time 24 hr 70° C. (IgG) | Absorbance (550 nm) 6 Times 30 min each 23° C. (IgG) | further results
CCCCCCCC/C=C\CCCCCCCCOCCOCCO [PEO(2) OLEYL ETHER] | 7 ng/cm^2 | 22 ng/cm^2 | 4 ng/cm^2 | 5 ng/cm^2 | 0.291 | 0.000 | 0.000 | confluent cell growth with normal cell morphology | no detectable | 0.000 | 0.00 | 0.00 | 0.00 |  |  |  |  |  |  |  | Bound Protein Absorbance (550 nm) FBS (Fetal Bovine Serum (FBS); blended at 5% into polystyrene): 0.015; Bound Protein Absorbance (550 nm) BSA (BSA; [5]): 0.000; Bound Protein Absorbance (550 nm) BSA (BSA; [6]): 0.000; Bound Protein Absorbance (550 nm) BSA (BSA; blended at 5% into polystyrene): 0.007
CCCCCCCCCCCCOCCOCCOCCOCCO [PEO(4) LAURYL ETHER] | 2 ng/cm^2 | 10 ng/cm^2 | 4 ng/cm^2 | 2 ng/cm^2 |  |  |  | confluent cell growth with normal cell morphology |  |  | 0.00 | 0.00 | 0.00 | None |  |  |  |  |  |  | 
PEO(4) SORBITOL MONO-STEARATE | 37 ng/cm^2 | 130 ng/cm^2 | 80 ng/cm^2 | 18 ng/cm^2 |  |  | 0.057 |  |  | 0.016 | 0.00 | 0.00 | 0.00 | None | 0.00 | 0.00 | 0.02 | 0.10 | 0.10 | 0.10 | 
PEO(20) SORBITOL TRI-STEARATE | 5 ng/cm^2 | 7 ng/cm^2 | 4 ng/cm^2 | 2 ng/cm^2 |  |  |  |  |  |  | 0.00 | 0.00 | 0.00 | None | 0.00 | 0.00 | 0.02 | 0.10 | 0.10 | 0.10 | 
SORBITOL MONO-OLEATE | 31 ng/cm^2 | 33 ng/cm^2 | 5 ng/cm^2 | 7 ng/cm^2 | 0.371 | 0.000 | 0.000 | confluent cell growth with normal cell morphology | no detectable | 0.000 | 0.00 | 0.00 | 0.00 |  | 0.00 | 0.00 | 0.00 | 0.00 | 0.00 | 0.00 | Bound Protein Absorbance (550 nm) BSA (BSA; [5]): 0.147; Bound Protein Absorbance (550 nm) BSA (BSA; [6]): 0.000
